Measured values from patent US20210094933A1, “RAPAFUCIN DERIVATIVE COMPOUNDS AND METHODS OF USE THEREOF” (The Johns Hopkins University, priority 2019, published 2021).
Values after ≈ are worked out from the molar mass of the structure shown. Like-named read-outs stand apart in the source and are kept apart here.

How the values were obtained:
[1] = Nucleoside uptake assay, single concentration (Rel.Uptake), response relative to DMSO; cell line indicated in each table; format: cell-based; conditions: 293 T cells, nucleoside uptake at single concentration
293T = assay: Nucleoside uptake assay (3H-Thymidine), IC50 relative to DMSO control; format: cell-based; conditions: 293T cells; Table 17
Method: Nucleoside Uptake Assay (uptake). Nuceloside uptake assays were performed with using 3H-Thymidine as described in Guo et al. (2018) Nat. Chem, 11:254-63. Specific cell lines are indicated in each assay and cultured in complete growth media. Activity is scored according to the IC50 values relative to DMSO control. “Low” indicates an IC50 greater than 600 nM, “Medium” indicates an IC50 between 300 nM and 600 nM “High” indicates an IC50 less than 300 nM. “Rel.Uptake” refers to uptake activity characterization relative to a single concentration assay. “Low” indicates a response greater than 0.6 times the activity relative to DMSO, “Medium” indicates a response between 0.6 and 0.3 times the activity relative to DMSO, “High” indicates a response less than 0.3 times the activity relative to DMSO.

[2] = Aqueous solubility in PBS solution; format: physicochemical; conditions: aqueous buffer
Method: Compound 1593 is synthesized according to Scheme 42. The aqueous solubility of compound 1593 and its counterpart structure without carboxylic acid substitutent, compound 1594, is shown in Table 18. Without the carboxylic acid substitutent, compound 1594 merely has a solubility of about 0.1 mg/mL in PBS solution.

Sprague Dawley Rats = assay: Rat Renal Ischemia-Reperfusion model; format: in vivo; conditions: compound given 30 min prior to right nephrectomy and left renal clamping, 24 hours of reperfusion
Method: Briefly, Sprague Dawley Rats were treated test compound 30 min prior to a right nephrectomy and with underwent clamping of the left renal clamping for 15 mins. After 24 hours of reperfusion, blood was collected to measure biomarkers for kidney damage and the kidney was removed for histology. […] SHAM indicates an animal group with right nephrectomy without ischemic injury. VE indicates vehicle. DPA indicates dipyridamole administered in a dosage of 10 mg/kg. Compound 1593 was administered at a high dosage (12 mg/kg) or a low dosage (4 mg/kg). Compound 1594 was administered at 4 mg/kg.

COc1ccc(CC[C@H]2OC(=O)[C@@H]3CCCCN3C(=O)C(=O)C(C)(C)COC(=O)/C=C/CCN(C)C(=O)[C@H](CC(C)C)N(C)C(=O)[C@H]3CCCN3C(=O)[C@H](Cc3ccc(OCC(=O)O)cc3)NC(=O)[C@H](c3ccccc3)NC(=O)CCC(=O)Nc3cccc2c3)cc1OC [Compound 1593]
Rel. Uptake, 293 T [1]: High (“High” indicates a response less than 0.3 times the activity relative to DMSO) | IC50 (293T): < 300 nM | solubility ([2]; PBS, read-out: Solubility): 3500 µg/mL (≈ 2700 µM) | solubility ([2]; read-out: solubility in PBS solution): ~3500 µg/mL (≈ 2700 µM) | efficacy in Rat Renal Ischemia-Reperfusion model (Sprague Dawley Rats): efficacious
